Reference: US8168651B2, “Protein kinase modulators” (Cylene Pharmaceuticals, Inc., priority 2008, dated 2012)
Like-named read-outs stand apart in the source and are kept apart here.

Key:
[1] = test system: HCT-116 human colorectal carcinoma cells; test: Cell-proliferation assay using Alamar Blue dye; format: cell-based; settings: Homo sapiens;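 note: cells exposed to compound for about 4 days, then Alamar Blue added and dye fluorescence read after about 4 h, compared with medium-only control wells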
recombinant human PIM1 = recombinant human PIM1 (Homo sapiens (Human), UniProt P11309); test: PIM-1 kinase activity in cell-free in vitro assay; format: biochemical; settings: for inhibition at 0.5 µM: read-out: PIM-1: % inh 500 nM
Sequence of recombinant human PIM1 (P11309 whole entry): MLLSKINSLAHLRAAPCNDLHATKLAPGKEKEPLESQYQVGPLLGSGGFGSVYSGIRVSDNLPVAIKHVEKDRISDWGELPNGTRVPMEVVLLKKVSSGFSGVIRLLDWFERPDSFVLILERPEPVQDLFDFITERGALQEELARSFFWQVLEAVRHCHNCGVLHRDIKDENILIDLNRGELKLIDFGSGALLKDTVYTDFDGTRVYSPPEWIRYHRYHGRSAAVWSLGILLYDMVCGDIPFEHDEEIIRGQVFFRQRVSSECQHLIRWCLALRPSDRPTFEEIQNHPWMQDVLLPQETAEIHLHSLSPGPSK

[2] = HCT-116, read-out: HCT-116 (uM), cell proliferation modulatory activity, HCT-116, first column
[3] = HCT-116, HCT-116, second column, read-out: HCT-116 (uM), cell proliferation modulatory activity
[4] = HCT-116, read-out: HCT-116 (uM), cell proliferation modulatory activity, HCT-116, second column
[5] = 500 nM compound, cell-free assay
[6] = HCT-116, HCT-116, second HCT-116 column (c8), read-out: HCT-116 (uM), cell proliferation modulatory activity

SMILES	IC50 [1, 2]	inhibition at 0.5 µM (recombinant human PIM1; 500 nM compound, cell-free)	other results
O=C(O)c1ccc2c(c1)nc(OCCCO)c1ccsc12	10 µM	-34.7%	
O=C(O)c1ccc2c(c1)nc(NCCCO)c1ccsc12	10 µM	-0.688%	
O=C(O)c1ccc2c(c1)nc(NCCO)c1ccsc12	10 µM	-49.4%	
O=C(O)c1ccc2c(c1)nc(NCc1ccccn1)c1ccsc12	10 µM	-36.6%	
O=C(O)c1ccc2c(c1)nc(NCCN1CCOCC1)c1ccsc12	10 µM	-10%	
O=C(O)c1ccc2c(c1)nc(NCc1ccncc1)c1ccsc12	10 µM	71.3%	
COc1ccccc1Nc1nc2cc(C(=O)O)ccc2c2sccc12	10 µM	0.445%	
O=C(O)c1ccc2c(c1)nc(Nc1cccc(O)c1)c1ccsc12	10 µM	6.5%	
COc1ccc(Nc2nc3cc(C(=O)O)ccc3c3sccc23)c(OC)c1	10 µM	3.88%	
O=C(O)c1ccc2c(c1)nc(NCCc1ccccc1)c1ccsc12	10 µM	19.9%	
O=C(O)c1ccc2c(c1)nc(Nc1ccc(F)cc1)c1ccsc12	10 µM	66.7%	IC50 (recombinant human PIM1; cell-free): 0.32 µM
Cc1ccccc1Nc1nc2cc(C(=O)O)ccc2c2sccc12	10 µM	-15.5%	
COc1cccc(Nc2nc3cc(C(=O)O)ccc3c3sccc23)c1	10 µM	23.4%	
O=C(O)c1ccc2c(c1)nc(Nc1ccc(F)cc1F)c1ccsc12	10 µM	67.2%	IC50 (recombinant human PIM1; cell-free): 0.362 µM
O=C(O)c1ccc2c(c1)nc(NC1CC1)c1ccsc12	10 µM	37.4%	
O=C(O)c1ccc2c(c1)nc(N1CCc3ccccc31)c1ccsc12	10 µM	-9.95%	
COc1ccc(Nc2nc3cc(C(=O)O)ccc3c3sccc23)cc1Cl	10 µM	-2.65%	
O=C(O)c1ccc2c(c1)nc(Nc1ccccc1O)c1ccsc12	10 µM	-3.12%	
O=C(O)c1ccc2c(c1)nc(Nc1ccc(N3CCOCC3)cc1)c1ccsc12	10 µM		inhibition at 0.5 µM (recombinant human PIM1): 1.17%
COc1ccc(OC)c(Nc2nc3cc(C(=O)O)ccc3c3sccc23)c1	10 µM	-3.22%	
Fc1ccc(Nc2nc3cc(-c4nnn[nH]4)ccc3c3sccc23)cc1Cl	10 µM	67.4%	IC50 (recombinant human PIM1; cell-free): 0.702 µM
COc1cccc(Nc2nc3cc(-c4nnn[nH]4)ccc3c3sccc23)c1	10 µM	55.7%	IC50 (recombinant human PIM1; cell-free): 0.352 µM
Clc1ccc(Nc2nc3cc(-c4nnn[nH]4)ccc3c3sccc23)cc1	10 µM	66.4%	IC50 (recombinant human PIM1; cell-free): 0.501 µM
COc1ccc(Nc2nc3cc(-c4nnn[nH]4)ccc3c3sccc23)cc1Cl	10 µM	25.6%	
N#Cc1ccc2c(c1)[nH]c(=O)c1ccncc12		-16%	IC50 [1, 3]: > 10 µM

SMILES	IC50 [1, 2]	inhibition at 0.5 µM (recombinant human PIM1; 500 nM compound, cell-free)	other results
NC(=O)c1ccc2c(c1)[nH]c(=O)c1ccncc12		4.18%	IC50 [1, 3]: > 10 µM
CC(C)Oc1cccc(Nc2nc3cc(-c4nnn[nH]4)ccc3c3sccc23)c1		31.9%	IC50 [1, 4]: > 10 µM
COc1cc(Nc2nc3cc(-c4nnn[nH]4)ccc3c3sccc23)cc(OC)c1		55.8%	IC50 [1, 4]: 15 µM; IC50 (recombinant human PIM1; cell-free): 0.465 µM
COc1cc(Nc2nc3cc(-c4nnn[nH]4)ccc3c3sccc23)ccc1F		35%	IC50 [1, 4]: > 10 µM
COc1ccc(Nc2nc3cc(-c4nnn[nH]4)ccc3c3sccc23)cc1		63%	IC50 [1, 3]: > 10 µM; IC50 (recombinant human PIM1; cell-free): > 1.1 µM
CCOc1ccc(Nc2nc3cc(-c4nnn[nH]4)ccc3c3sccc23)cc1		46.1%	IC50 [1, 3]: > 10 µM
FC(F)(F)Oc1ccc(Nc2nc3cc(-c4nnn[nH]4)ccc3c3sccc23)cc1		32.5%	IC50 [1, 3]: > 10 µM
c1ccc(COc2ccc(Nc3nc4cc(-c5nnn[nH]5)ccc4c4sccc34)cc2)cc1		9.03%	IC50 [1, 3]: 15 µM
COc1ccc(Nc2nc3cc(-c4nnn[nH]4)ccc3c3sccc23)cc1OC		55.5%	IC50 [1, 3]: > 10 µM; IC50 (recombinant human PIM1; cell-free): 0.809 µM
CCOC(=O)c1cccc(Nc2nc3cc(-c4nnn[nH]4)ccc3c3sccc23)c1		34%	IC50 [1, 3]: > 10 µM
CC(C)c1cccc(Nc2nc3cc(-c4nnn[nH]4)ccc3c3sccc23)c1		35.9%	IC50 [1, 3]: > 10 µM
c1ccc2c(c1)ncn2-c1nc2cc(-c3nnn[nH]3)ccc2c2sccc12		71.6%	IC50 [1, 3]: 15 µM; IC50 (recombinant human PIM1; cell-free): > 1.1 µM
CCOc1cccc(Nc2nc3cc(-c4nnn[nH]4)ccc3c3sccc23)c1		57.7%	IC50 [1, 4]: > 10 µM; IC50 (recombinant human PIM1; cell-free): 0.384 µM
CCc1cccc(Nc2nc3cc(-c4nnn[nH]4)ccc3c3sccc23)c1		61%	IC50 [1, 4]: > 10 µM; IC50 (recombinant human PIM1; cell-free): > 1.1 µM
c1ccc(CNc2nc3cc(-c4nnn[nH]4)ccc3c3sccc23)cc1		-21.2%	IC50 [1, 3]: > 10 µM
FC(F)(F)c1cc(Nc2nc3cc(-c4nnn[nH]4)ccc3c3sccc23)ccc1Cl		-46.4%	IC50 [1, 3]: > 10 µM
COc1cc(Nc2nc3cc(-c4nnn[nH]4)ccc3c3sccc23)ccc1C		34.1%	IC50 [1, 3]: > 10 µM
c1cc2c(Nc3ccc4c(c3)OCO4)nc3cc(-c4nnn[nH]4)ccc3c2s1		18%	IC50 [1, 3]: > 10 µM
c1cc2c(Nc3ccc4c(c3)OCCO4)nc3cc(-c4nnn[nH]4)ccc3c2s1		26.7%	IC50 [1, 4]: > 10 µM
CN(C)CCCNc1nc2cc(-c3nnn[nH]3)ccc2c2sccc12		58.2%	IC50 [1, 3]: 15 µM; IC50 (recombinant human PIM1; cell-free): 0.511 µM
N#Cc1ccc2c(c1)nc(Nc1ccccc1)c1ccncc12		2.12%	IC50 [1, 3]: 6.9 µM
CN(C)CCNc1nc2cc(C#N)ccc2c2cnccc12		-11.5%	IC50 [1, 3]: 1.6 µM
O=C(O)c1ccc2c(c1)nc(Nc1cc(Cl)ccc1F)c1ccsc12		52.8%	IC50 [1, 4]: > 10 µM; IC50 (recombinant human PIM1; cell-free): 0.42 µM
CCOc1cccc(Nc2nc3cc(C(=O)O)ccc3c3sccc23)c1		16.8%	IC50 [1, 4]: > 10 µM
O=C(O)c1ccc2c(c1)nc(Nc1cccc(Oc3ccccc3)c1)c1ccsc12		-10.2%	IC50 [1, 4]: > 10 µM

SMILES	IC50 [1, 2]	inhibition at 0.5 µM (recombinant human PIM1; 500 nM compound, cell-free)	other results
NS(=O)(=O)c1cccc(Nc2nc3cc(C(=O)O)ccc3c3sccc23)c1		21.7%	IC50 [1, 4]: > 10 µM
O=C(c1cccc(Nc2nc3cc(-c4nnn[nH]4)ccc3c3sccc23)c1)N1CCOCC1		21%	IC50 [1, 4]: > 10 µM
CN(C)CCNC(=O)c1cccc(Nc2nc3cc(-c4nnn[nH]4)ccc3c3sccc23)c1		71.1%	IC50 [1, 4]: > 10 µM; IC50 (recombinant human PIM1; cell-free): 0.38 µM
COC(=O)CNC(=O)c1cccc(Nc2nc3cc(-c4nnn[nH]4)ccc3c3sccc23)c1		48%	IC50 [1, 4]: > 10 µM
O=C(NCc1cccnc1)c1cccc(Nc2nc3cc(-c4nnn[nH]4)ccc3c3sccc23)c1		29.6%	IC50 [1, 4]: > 10 µM
CN(C)C(=O)c1cccc(Nc2nc3cc(-c4nnn[nH]4)ccc3c3sccc23)c1		49.1%	IC50 [1, 4]: > 10 µM
CC(=O)N1CCN(C(=O)c2cccc(Nc3nc4cc(-c5nnn[nH]5)ccc4c4sccc34)c2)CC1		48.4%	IC50 [1, 4]: > 10 µM
CCCNC(=O)c1cccc(Nc2nc3cc(C(=O)O)ccc3c3sccc23)c1		13.3%	IC50 [1, 4]: > 10 µM
O=C(O)c1ccc2c(c1)nc(Nc1cccc(C(=O)N3CCOCC3)c1)c1ccsc12		46.4%	IC50 [1, 4]: > 10 µM
O=C(O)CNC(=O)c1cccc(Nc2nc3cc(C(=O)O)ccc3c3sccc23)c1		24%	IC50 [1, 4]: > 10 µM
C#Cc1cccc(Nc2nc3cc(C(=O)O)ccc3c3cnc(NCCOC)nc23)c1			IC50 ([1]; HCT-116, read-out: HCT-116 (uM), cell proliferation modulatory activity, HCT-116, second HCT-116 column (c8)): 8.05 µM; inhibition at 0.5 µM (recombinant human PIM1; [5]): 55.5%; IC50 (recombinant human PIM1; cell-free assay): > 1.1 µM
CN1CCN(c2nc3cc(C(=O)NCc4ccncc4)ccc3c3sccc23)CC1			IC50 [1, 6]: > 10 µM; inhibition at 0.5 µM (recombinant human PIM1; [5]): -14.1%
CN1CCN(c2nc3cc(C(=O)NCc4cccnc4)ccc3c3sccc23)CC1			IC50 [1, 6]: > 10 µM; inhibition at 0.5 µM (recombinant human PIM1; [5]): -16%
CC(C)OCCNC(=O)c1ccc2c(c1)nc(N1CCN(C)CC1)c1ccsc12			IC50 [1, 6]: > 10 µM; inhibition at 0.5 µM (recombinant human PIM1; [5]): -3.62%
CN1CCN(c2nc3cc(C(=O)NCC4CCCO4)ccc3c3sccc23)CC1 (centres unmarked)			IC50 [1, 6]: > 10 µM; inhibition at 0.5 µM (recombinant human PIM1; [5]): 11%
CN1CCN(c2nc3cc(C(=O)NC4CC4)ccc3c3sccc23)CC1			IC50 [1, 6]: > 10 µM; inhibition at 0.5 µM (recombinant human PIM1; [5]): -12.7%
CONC(=O)c1ccc2c(c1)nc(N1CCN(C)CC1)c1ccsc12			IC50 [1, 6]: > 10 µM; inhibition at 0.5 µM (recombinant human PIM1; [5]): -0.965%
CN1CCN(c2nc3cc(C(=O)NCc4nccn4C)ccc3c3sccc23)CC1			IC50 [1, 6]: > 10 µM; inhibition at 0.5 µM (recombinant human PIM1; [5]): -14.5%
CN1CCN(c2nc3cc(C(=O)NCc4cncn4C)ccc3c3sccc23)CC1			IC50 [1, 6]: > 10 µM; inhibition at 0.5 µM (recombinant human PIM1; [5]): -22.5%
Cn1nc(-c2ccccc2)cc1Nc1nc2cc(C(=O)O)ccc2c2cnccc12			IC50 [1, 6]: > 10 µM; inhibition at 0.5 µM (recombinant human PIM1; [5]): 58.3%; IC50 (recombinant human PIM1; cell-free assay): 0.914 µM
COC(=O)c1ccc2c(c1)nc(Nc1ccccc1C)c1nc(SC)ncc12			IC50 [1, 6]: > 10 µM; inhibition at 0.5 µM (recombinant human PIM1; [5]): 12.5%
CC(=O)Nc1cccc(Nc2nc3cc(C(=O)O)ccc3c3cnccc23)c1			IC50 [1, 6]: > 10 µM; inhibition at 0.5 µM (recombinant human PIM1; [5]): 73.6%; IC50 (recombinant human PIM1; cell-free assay): 0.369 µM
NS(=O)(=O)c1cccc(Nc2nc3cc(C(=O)O)ccc3c3cnccc23)c1			IC50 [1, 6]: > 10 µM; inhibition at 0.5 µM (recombinant human PIM1; [5]): 83.4%; IC50 (recombinant human PIM1; cell-free assay): 0.397 µM
